Reference: US5284834A, “Adenosine functionalized congeners as cardiovascular treating agents for animals and methods for using same” (priority 1992, dated 1994)
“Also recorded” adds a separate entry of the source. Read-outs that look alike come from different tables or passages of the source.

What was measured:
[1] = biological target: T1, Coronary A2-Adenosine Receptor (Canis lupus familiaris, UniProt P11617); assay: Coronary vasoactivity in the anesthetized, open-chest dog (intracoronary infusion; MPR from EC50); assay type: in vivo; details: for coronary vasoactivity (in words): intracoronary infusion; for A2 Receptor MPR Relative to MeAdo: molar potency ratio relative to N6-methyladenosine (set equal to 1.0); for A2 Receptor MPR Relative to MeAdo / A2 Receptor MPR Relative to Ado: coronary; for A2 Receptor MPR Relative to Ado: molar potency ratio: EC50 of adenosine divided by that of the analogue; for A2/A1 potency ratio (MPR(A2)/MPR(A1)): ratio of MPR (MeAdo) at dog coronary A2 receptor to MPR at rat brain A1 receptor; for A2 versus A1 receptor selectivity (in words): dog coronary A2 versus rat brain A1
T1 construct: The assay of coronary vasoactivity in the anesthetized, open-chest dog; from tissue; host or cells: coronary vessels in situ, anesthetized open-chest dog
From the text: (§1) In the present invention there is compared the A1 - and A2 -potencies of a series of long-chain derivatives of adenosine suitable for attachment to "carriers," such as peptides or proteins, and for immobilization to polymeric matrices for affinity chromatography of adenosine receptors. The method employed is a comparison of increasing coronary blood flow via activation of an A2 -adenosine receptor versus an A1 -binding assay in rat brain.
(§2) The potencies at A2 -receptors (Table 1) are expressed as a molar potency ratio of the EC50 value of adenosine divided by that of the adenosine analogue. A common reference compound on which to base molar potency ratios was needed to facilitate comparison of activities at A1 and A2 receptors. Adenosine itself cannot be used as a reference in the A1 binding assay since treatment of the membranes with adenosine deaminase is essential. […] Thus, MeAdo was used as a suitable reference compound.
The assay of coronary vasoactivity in the anesthetized, open-chest dog, is described by Kusachi et al, J. Med. Chem., in press, and Olsson, et al, J. Circ. […] The assay estimates an EC-50, the concentration of analogue which produces a half maximum change in coronary conductance (reciprocal resistance). To reduce between-animal variability activity is expressed as a molar potency ratio (MPR) the value of the EC-50 of adenosine divided by that of the analogue. Owing to the low water solubility of some of the analogues, solutions for intracoronary infusion were prepared by diluting stock solutions in dimethyl sulfoxide. In such instances, solutions of adenosine used to establish a standard of potency also contained dimethyl sulfoxide. […]

[2] = test system: A2-receptors; details: background; cited from earlier work
[3] = test system: A1-receptors; details: background; cited from earlier work
[4] = biological target: T2, Brain A1-adenosine receptor (Rattus norvegicus, UniProt P25099); assay: A1-binding assay: antagonism of binding of 1nM [3H]N6-cyclohexyladenosine to rat cerebral cortical membranes; details: for A1 Receptor MPR Relative to MeAdo: molar potency ratio derived from Ki values, rat cerebral cortical membranes
T2 construct: -cyclohexyladenosine to rat cerebral cortical membranes; from tissue; host or cells: rat cerebral cortical membranes
T2 sequence (P25099 1-326): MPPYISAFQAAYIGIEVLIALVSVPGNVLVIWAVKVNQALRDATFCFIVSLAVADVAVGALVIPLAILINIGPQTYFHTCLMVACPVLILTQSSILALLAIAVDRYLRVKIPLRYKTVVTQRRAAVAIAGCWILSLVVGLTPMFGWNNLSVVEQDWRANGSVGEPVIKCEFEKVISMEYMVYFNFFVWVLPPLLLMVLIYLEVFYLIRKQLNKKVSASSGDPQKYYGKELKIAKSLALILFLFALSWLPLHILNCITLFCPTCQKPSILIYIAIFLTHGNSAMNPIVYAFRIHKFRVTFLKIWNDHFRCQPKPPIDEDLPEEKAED
From the text: as §1
^b Molar potency ratio relative to adenosine, derived from Ki
values for antagonism of binding of 1nM [^3 H]N^6
-cyclohexyladenosine to rat cerebral cortical membranes.
as §2

[5] = Octanol water partition coefficients; assay type: physicochemical; details: for logP: octanol water, read-out: octanol water partition coefficient
From the text: B. Certain of the conjugates have ionizable groups on the attached chain. These groups alter the biodistribution of the compounds and make them less likely to enter the brain and produce central depressant effects. The effect of charged groups is reflected in octanol water partition coefficients as follows: […]

[6] = Entry into the brain and central side effects; details: in vivo
[7] = biological target: T3, A2-adenosine receptor (adenylate cyclase, human platelet membranes) (Homo sapiens, UniProt P29274); assay: Stimulation of adenylate cyclase in human platelet membranes; assay type: biochemical
T3 construct: stimulation of adenylate cyclase in human platelet membranes; from tissue; host or cells: human platelet membranes
T3 sequence (P29274 whole entry): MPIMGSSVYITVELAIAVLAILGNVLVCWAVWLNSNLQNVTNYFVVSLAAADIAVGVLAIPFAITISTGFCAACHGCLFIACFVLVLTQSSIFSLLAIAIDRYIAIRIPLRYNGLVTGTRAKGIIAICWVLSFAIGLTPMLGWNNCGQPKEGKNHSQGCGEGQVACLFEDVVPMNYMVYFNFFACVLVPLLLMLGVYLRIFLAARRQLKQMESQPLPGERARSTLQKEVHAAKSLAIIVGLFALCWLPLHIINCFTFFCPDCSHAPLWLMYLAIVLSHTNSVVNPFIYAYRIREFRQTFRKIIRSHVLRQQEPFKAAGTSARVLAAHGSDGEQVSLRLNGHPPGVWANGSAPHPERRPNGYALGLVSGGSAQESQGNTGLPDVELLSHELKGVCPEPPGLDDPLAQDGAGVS

T1 sequence (P11617 whole entry, the tested form may be a part): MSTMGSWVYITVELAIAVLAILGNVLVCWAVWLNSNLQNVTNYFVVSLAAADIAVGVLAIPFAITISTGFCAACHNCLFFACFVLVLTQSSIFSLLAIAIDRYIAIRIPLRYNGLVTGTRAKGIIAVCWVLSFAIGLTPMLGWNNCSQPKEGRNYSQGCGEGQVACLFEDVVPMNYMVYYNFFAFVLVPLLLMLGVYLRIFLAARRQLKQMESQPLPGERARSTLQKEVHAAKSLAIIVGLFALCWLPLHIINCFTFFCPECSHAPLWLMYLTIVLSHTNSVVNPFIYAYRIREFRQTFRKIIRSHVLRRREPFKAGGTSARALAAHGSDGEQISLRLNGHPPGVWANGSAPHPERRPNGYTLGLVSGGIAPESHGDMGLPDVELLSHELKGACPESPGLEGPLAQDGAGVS

| Compound | coronary vasoactivity (in words) ([1]; dog) | A2 Receptor MPR Relative to MeAdo ([1]; dog) | A2 Receptor MPR Relative to Ado ([1]; dog) | A2/A1 potency ratio (MPR(A2)/MPR(A1)) [1] | A1 Receptor MPR Relative to MeAdo [4] | other results |
| --- | --- | --- | --- | --- | --- | --- |
| CCNC(=O)[C@H]1O[C@@H](n2cnc3c(N)ncnc32)[C@H](O)[C@@H]1O [Compound 1, N-Ethyladenosine-5'-uronamide] | exceptionally potent |  |  |  |  | potency at A2-receptors (rank in words) [2]: clearly the most potent; order of potency at A1-receptors [3]: R-PIA, CHA>NECA>S-PIA |
| Nc1nc(Cl)nc2c1ncn2[C@@H]1O[C@H](CO)[C@@H](O)[C@H]1O [Compound 2, 2-Chloroadenosine, reference compound] |  | 540 | 27 | 54 | 10 |  |
| CNc1ncnc2c1ncn2[C@@H]1O[C@H](CO)[C@@H](O)[C@H]1O [Compound 3, N^6 -methyladenosine, reference compound] |  | 1.0 | 0.05 | 1.0 | 1.0 | fold weaker than adenosine at A2-receptors ([1]; dog, in vivo): ≥ 20 -fold; fold weaker than adenosine at A1-receptors [4]: at least 10 -fold |
| C[C@H](Cc1ccccc1)Nc1ncnc2c1ncn2[C@@H]1O[C@H](CO)[C@@H](O)[C@H]1O [Compound 4, N^6 -R-1-Phenyl-2-propyladenosine] |  |  |  |  |  | logP [5]: 2; order of potency at A1-receptors [3]: R-PIA, CHA>NECA>S-PIA; brain entry [6]: enters the brain; central side effects [6]: produces central side effects |
| OC[C@H]1O[C@@H](n2cnc3c(NC4CCCCC4)ncnc32)[C@H](O)[C@@H]1O [Compound 5, N^6 -cyclohexyladenosine] |  |  |  |  |  | order of potency at A1-receptors [3]: R-PIA, CHA>NECA>S-PIA |
| OC[C@H]1O[C@@H](n2cnc3c(Nc4ccccc4)ncnc32)[C@H](O)[C@@H]1O [Compound 6, N^6 -phenyladenosine, reference compound] | can exhibit some activity at this A2 -receptor | 28 | 1.4 | 1.6 | 18 |  |
| Cc1ccc(Nc2ncnc3c2ncn3[C@@H]2O[C@H](CO)[C@@H](O)[C@H]2O)cc1 [Compound 7, N^6 -p-tolyladenosine, reference compound] | can exhibit some activity at this A2 -receptor | 27 | 1.35 | 1.1 | 24 |  |
| O=C(O)Cc1ccc(Nc2ncnc3c2ncn3[C@@H]2O[C@H](CO)[C@@H](O)[C@H]2O)cc1 [Compound 8, N^6-(4-carboxymethylphenyl)adenosine] | only weakly active |  |  |  | 0.29 | polarity compared with compound 4 [5]: considerably more polar than 4; logP [5]: < -1.4; % increase in flow over control ([1]; @ 21 μM plasma nucleoside concentration achieved during infusion): 27%; IC50 ([7]; human platelet membranes, read-out: IC50 (printed lC50), stimulation of adenylate cyclase): 26 µM; A1-binding activity (in words) [4]: only weakly active |
| CNC(=O)Cc1ccc(Nc2ncnc3c2ncn3[C@@H]2O[C@H](CO)[C@@H](O)[C@H]2O)cc1 [Compound 9] | enhanced activity at both receptor subtypes |  |  |  |  |  |
| Cc1ccc(NC(=O)Cc2ccc(Nc3ncnc4c3ncn4[C@@H]3O[C@H](CO)[C@@H](O)[C@H]3O)cc2)cc1 [Compound 10] | enhanced activity at both receptor subtypes | 42 | 2.1 ± 1.3 | 1.2 | 35 | A1-binding activity (in words) [4]: enhanced activity at both receptor subtypes |
| COC(=O)[C@H](Cc1ccc(NC(=O)Cc2ccc(Nc3ncnc4c3ncn4[C@@H]3O[C@H](CO)[C@@H](O)[C@H]3O)cc2)cc1)NC(=O)C(F)(F)F [Compound 11] |  | 60 | 3.0 ± 0.7 | greater than 10 | 3.3 | A2/A1 potency ratio (MPR(A2)/MPR(A1)) ([1]; listed as drawing 6): 18 |
| CNC(=O)CNC(=O)[C@H](Cc1ccc(NC(=O)Cc2ccc(Nc3ncnc4c3ncn4[C@@H]3O[C@H](CO)[C@@H](O)[C@H]3O)cc2)cc1)NC(=O)OC(C)(C)C [Compound 12] |  | 88 | 4.4 ± 0.4 | greater than 10 | 4.6 | A2/A1 potency ratio (MPR(A2)/MPR(A1)) ([1]; listed as drawing 7): 19 |
| COC(=O)Cc1ccc(NC(=O)Cc2ccc(Nc3ncnc4c3ncn4[C@@H]3O[C@H](CO)[C@@H](O)[C@H]3O)cc2)cc1 [Compound 13] |  | 64 | 33.2 ± 1.6 | 2.7 | 24 |  |
| CNC(=O)Cc1ccc(NC(=O)Cc2ccc(Nc3ncnc4c3ncn4[C@@H]3O[C@H](CO)[C@@H](O)[C@H]3O)cc2)cc1 [Compound 14] | three most active analogues | ≥ 100 | 7.2 ± 1443 |  | 9.0 | A2 versus A1 receptor selectivity (in words) [1]: highly divergent at A1 and A2 receptors |
| NNC(=O)Cc1ccc(NC(=O)Cc2ccc(Nc3ncnc4c3ncn4[C@@H]3O[C@H](CO)[C@@H](O)[C@H]3O)cc2)cc1 [Compound 15] |  | 70 | 3.5 ± 0.8 | 5.3 | 13 |  |
| NCCNC(=O)Cc1ccc(NC(=O)Cc2ccc(Nc3ncnc4c3ncn4[C@@H]3O[C@H](CO)[C@@H](O)[C@H]3O)cc2)cc1 [Compound 16] | three most active analogues; also recorded: high efficacy as a coronary vasodilator |  | 7.8 ± 2.5 |  |  | polarity compared with compound 4 [5]: considerably more polar than 4; logP [5]: -0.81; IC50 [7]: 0.98 µM |
| O=C(CCc1ccc(O)cc1)NCCNC(=O)Cc1ccc(NC(=O)Cc2ccc(Nc3ncnc4c3ncn4[C@@H]3O[C@H](CO)[C@@H](O)[C@H]3O)cc2)cc1 [Compound 17] |  | 56 | 2.8 ± 0.1 | 4.2 | 13 |  |
| O=C(CCCC[C@@H]1SC[C@@H]2NC(=O)N[C@@H]21)NCCNC(=O)Cc1ccc(NC(=O)Cc2ccc(Nc3ncnc4c3ncn4[C@@H]3O[C@H](CO)[C@@H](O)[C@H]3O)cc2)cc1 [Compound 18] |  | 60 | 3.0 ± 0.2 |  | 5.5 | A2 versus A1 receptor selectivity (in words) [1]: highly divergent at A1 and A2 receptors |
| C[C@@H](Cc1ccccc1)Nc1ncnc2c1ncn2[C@@H]1O[C@H](CO)[C@@H](O)[C@H]1O [S-PIA] |  |  |  |  |  | order of potency at A1-receptors [3]: R-PIA, CHA>NECA>S-PIA |
| Avidin | lacked coronary vasoactivity |  |  |  |  |  |
